Results as given in paper PMC12475274, “Harnessing indole scaffolds to identify small-molecule IRE1α inhibitors modulating XBP1 mRNA splicing” (Nature Communications, 2025).
“And” between values parts separate entries of the source, which are not always exact repeats. Identical values can stand only once. Like-named read-outs stand apart in the source and are kept apart here.

Experiments:
[1] = target: T1, phosphorylated IRE1α (p-IRE1α) (Homo sapiens, UniProt O75460); test: FRET-based IRE1α RNase activity assay, phosphorylated IRE1α; format: biochemical; conditions: for inhibition at 50 µM: FRET assay at 50 μM, read-out: p-IRE1α inhibition%
T1 construct: Human IRE1α kinase and RNase domain (residues 547–977) was subcloned into pLIB plasmid; His tag (with TEV cleavage site) (N, cleaved yes); made in house; host or cells: Sf9 insect cells, baculovirus (Bac-to-Bac)
Experimental: (§1) Human IRE1α kinase and RNase domain (residues 547–977) was subcloned into pLIB plasmid with a His tag and TEV cleavage site, and expressed using Bac-to-Bac expression system. The primers used are listed in Supplementary Table S3. The protein purification was performed following established procedures. Briefly, Sf9 cells were infected with baculovirus and incubated at 27 °C 110 rpm for 72 h. The cells were collected by centrifugation at 4000 × g for 15 min and the cell pellet was resuspended in lysis buffer (50 mM HEPES pH 7.5, 300 mM NaCl, 10% glycerol, 1 mM MgCl2, 1 mM TCEP, 5 mM imidazole), then supplemented with 1:10,000 benzonase (Sigma, E1014), 1 tablet/25 mL […]™ Protease Inhibitor Cocktail tablets (Sigma, S8830) and 1 mM PMSF before lysed by sonication at 4 °C. […] The protein elution was incubated with TEV protease to remove His tag at 4 °C overnight. Then the sample was diluted 1:6 in buffer (50 mM HEPES pH 7.5, 1 mM TCEP, 5% glycerol) and loaded onto a 5 mL pre-packaged Q HP anion exchange column (Cytiva, HiTrap Q HP) pre-equilibrated with QA buffer (50 mM HEPES pH 7.5, 50 mM NaCl, 1 mM TCEP, 5% glycerol). The unphosphorylated and phosphorylated protein was separated by eluting the protein with a very shallow gradient with 0-30% buffer QB (50 mM HEPES pH 7.5, 1 M NaCl, 1 mM TCEP, 5% glycerol) over 80 CV. Different peaks were collected separately and verified by LC-MS. The fully phosphorylated fraction was collected and further purified by size exclusion chromatography (Cytiva, HiLoad 16/600 Superdex 200 pg,) with SEC buffer (25 mM HEPES pH 7.5, 250 mM NaCl, 1 mM TCEP, 10% glycerol) and fractioned as monomeric peak. The rest protein fraction from the Q HP anion exchange column was incubated with Lambda protein phosphatase (New England BioLabs, P0753S) overnight at 4 °C, the dephosphorylation was confirmed by LC-MS. The unphosphorylated protein was further purified by size exclusion chromatography with the SEC buffer described above. The purified phosphorylated (p-IRE1α) and dephosphorylated (IRE1α) protein aliquots were stored at −80 °C for future usage.
(§2) The dual-labeled RNA substrate with a FAM at 5’ and the BHQ-1 at 3’ containing the XBP1 sequence (5′FAM-[…]-3′BHQ1) was purchased from Integrated DNA Technologies (IDT). The FRET-based IRE1α RNase activity assay was carried out in reaction buffer containing 20 mM HEPES pH 7.5, 50 mM KOAc, 1 mM MgOAc2, 1 mM DTT, 0.05% v/v TritonX-100, at a total reaction volume of 20 μL in a 384-well black plate (4514, Corning). For unphosphorylated IRE1α (IRE1α), a final concentration of 40 nM IRE1α protein and 100 nM RNA substrate was used. For phosphorylated IRE1 (p-IRE1α), a final concentration of 4 nM p-IRE1α protein and 200 nM RNA substrate was used. The indicated compound and IRE1α protein were incubated for 30 min at room temperature before the substrate was added to the reaction. The plate was then kinetically read over one hour at room temperature using a TECAN Spark plate reader. The measurement was carried out using the fluorescence top reading mode at the excitation wavelength of 485 nm and the emission wavelength of 535 nm with a 10 nm excitation and emission bandwidth. The linear part of the reaction curve was adopted and fitted with sample linear regression to obtain the slope, and the slope was adopted to reflect the reaction rate. The inhibition % was calculated by using the equation: inhibition% = 100 × (slope of DMSO control – slope of the sample)/(slope of DMSO control – slope of blank control), DMSO control: DMSO with protein and RNA substrate; Blank control: DMSO with RNA substrate. The IC50 values were calculated using the concentration-response model in GraphPad Prism 9.

[2] = target: T2, dephosphorylated IRE1α (547–977) (Homo sapiens, UniProt O75460); test: FRET-based IRE1α RNase activity assay, dephosphorylated IRE1α; format: biochemical; conditions: for inhibition at 50 µM: FRET assay at 50 μM, read-out: IRE1α inhibition%
T2 construct: Human IRE1α kinase and RNase domain (residues 547–977) was subcloned into pLIB plasmid; His tag (with TEV cleavage site) (N, cleaved yes); made in house; host or cells: Sf9 insect cells, baculovirus (Bac-to-Bac)
Experimental: as §1
as §2, with “9. […]” for “9.”

[3] = p-IRE1a, individual replicates (n1-n3), Supplementary Fig. 2b, 2c, read-out: IC50
[4] = p-IRE1a, mean, Supplementary Fig. 2b, 2c, read-out: IC50, mean
[5] = IRE1a, individual replicates (n1-n4), Supplementary Fig. 2b, 2c, read-out: IC50
[6] = IRE1a, mean, Supplementary Fig. 2b, 2c, read-out: IC50, mean
[7] = FRET assay, RNase activity, mean (± SEM), read-out: p-IRE1α IC50
[8] = FRET assay, source data, unit from Fig. 3, read-out: p-IRE1a IC50, individual replicates (n1-n4)
[9] = FRET assay, RNase activity, mean (± SEM), read-out: IRE1α IC50
[10] = FRET assay, source data, unit from Fig. 3 / sheet Fig. 2b, read-out: IRE1a IC50, individual replicates (n1-n4)

T2 sequence (O75460 547-977): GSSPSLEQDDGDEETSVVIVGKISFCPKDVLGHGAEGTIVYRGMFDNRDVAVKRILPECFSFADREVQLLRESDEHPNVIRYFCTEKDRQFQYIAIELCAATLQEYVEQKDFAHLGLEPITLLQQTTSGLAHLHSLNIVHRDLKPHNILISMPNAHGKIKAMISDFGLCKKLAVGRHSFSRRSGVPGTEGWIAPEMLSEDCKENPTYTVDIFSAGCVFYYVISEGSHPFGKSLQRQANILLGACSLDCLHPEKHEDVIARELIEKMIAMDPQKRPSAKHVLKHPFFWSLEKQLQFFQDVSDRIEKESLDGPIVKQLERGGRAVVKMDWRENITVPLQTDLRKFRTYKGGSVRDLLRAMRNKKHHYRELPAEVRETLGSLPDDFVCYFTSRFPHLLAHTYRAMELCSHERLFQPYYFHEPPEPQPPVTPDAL
T1 sequence (O75460 547-977): as above

IC50 [1, 7] | IC50 [1, 8] | IC50 [2, 9] | IC50 [2, 10] | Compound | also measured
– | – | – | – | COc1ccc2c(c1)c(C(C)=O)c(C)n2C(=O)c1ccc(Cl)cc1 [cms08] | inhibition at 50 µM ([1]; mean (± SEM)): < 30%; inhibition at 50 µM ([2]; mean (± SEM)): < 30%
– | – | – | – | Cc1c(CCC(=O)O)c2cc(Cl)ccc2n1C(=O)c1cccs1 [IA60] | IC50 [1, 3]: 244 nM and 461 nM and 90.7 nM; IC50 [1, 4]: 270 nM; IC50 [2, 5]: 117 nM and 90.9 nM and 105 nM; IC50 [2, 6]: 100 nM
39400 nM | 40500 nM and 47100 nM and 30600 nM | 14100 nM | 19600 nM and 14000 nM and 8760 nM | COc1ncc(-c2ccc3c(c2)c(CCC(=O)O)c(C)n3C(=O)c2ccccc2)c(OC)n1 [IA143] | –
11600 nM | 12400 nM and 15400 nM and 6990 nM | 2160 nM | 2900 nM and 1770 nM and 1820 nM | Cc1c(CCC(=O)O)c2cc(-c3ccncc3)ccc2n1C(=O)c1ccccc1 [IA153] | –
200 nM | 83 nM and 113 nM and 398 nM | 170 nM | 55.7 nM and 53.7 nM and 388 nM | COc1ccc(C(=O)n2c(C)c(CCC(=O)O)c3cc(OC)ccc32)cc1 [IA96] | –
1050 nM | 446 nM and 627 nM and 2070 nM | 340 nM | 173 nM and 171 nM and 675 nM | Cc1c(CCC(=O)O)c2ccccc2n1C(=O)c1ccccc1 [IA104] | –
940 nM | 986 nM and 798 nM and 1020 nM | 570 ± 360 nM | 524 nM and 238 nM and 957 nM | Cc1c(CCC(=O)O)c2cc(OC(F)(F)F)ccc2n1C(=O)c1ccccc1 [IA148] | reduction in IRE1α inhibition relative to IA64 ([2]; FRET IC50): ~ 19 fold
– | – | – | – | Cc1c(CCC(=O)O)c2ccccc2n1C(=O)c1cccs1 [IA42] | IC50 [1, 3]: 4450 nM and 1100 nM; IC50 [1, 4]: 2770 nM; IC50 [2, 5]: 1960 nM and 3270 nM and 1050 nM; IC50 [2, 6]: 2090 nM
720 nM | 252 nM and 1120 nM and 788 nM | 420 nM | 180 nM and 670 nM and 418 nM | Cc1c(CCC(=O)O)c2cc(F)ccc2n1C(=O)c1ccccc1 [IA137] | –
– | – | – | – | COC(=O)CCCc1c(C)n(C(=O)c2ccc(Cl)cc2)c2ccc(OC)cc12 [cms06] | inhibition at 50 µM ([1]; mean (± SEM)): < 30%; inhibition at 50 µM ([2]; mean (± SEM)): < 30%
4680 nM | 4810 nM and 5540 nM and 3680 nM | 1610 nM | 2690 nM and 1100 nM and 1040 nM | Cc1noc(C)c1-c1ccc2c(c1)c(CCC(=O)O)c(C)n2C(=O)c1ccccc1 [IA142] | –
